The results in this text go back to US10221173B2, “Chemical compounds” (AstraZeneca AB, priority 2017, dated 2019).

The target of data set [1] is recombinant human Estrogen Receptor alpha ligand binding domain (ER alpha-LBD (GST)) (Homo sapiens (Human), UniProt P03372). Description: ERα binding assay (LanthaScreen TR-FRET competition). In general terms: In TR-FRET formats the signal depends on donor and acceptor labels being close together.
In data set [2] the target is Estrogen Receptor (ERα) in MCF-7 cells (Homo sapiens (Human), UniProt P03372). As to the kind of experiment: MCF-7 ER down-regulation assay (immuno-fluorescence). The format is cell-based.
Chain of Estrogen Receptor (ERα) in MCF-7 cells (P03372 whole entry): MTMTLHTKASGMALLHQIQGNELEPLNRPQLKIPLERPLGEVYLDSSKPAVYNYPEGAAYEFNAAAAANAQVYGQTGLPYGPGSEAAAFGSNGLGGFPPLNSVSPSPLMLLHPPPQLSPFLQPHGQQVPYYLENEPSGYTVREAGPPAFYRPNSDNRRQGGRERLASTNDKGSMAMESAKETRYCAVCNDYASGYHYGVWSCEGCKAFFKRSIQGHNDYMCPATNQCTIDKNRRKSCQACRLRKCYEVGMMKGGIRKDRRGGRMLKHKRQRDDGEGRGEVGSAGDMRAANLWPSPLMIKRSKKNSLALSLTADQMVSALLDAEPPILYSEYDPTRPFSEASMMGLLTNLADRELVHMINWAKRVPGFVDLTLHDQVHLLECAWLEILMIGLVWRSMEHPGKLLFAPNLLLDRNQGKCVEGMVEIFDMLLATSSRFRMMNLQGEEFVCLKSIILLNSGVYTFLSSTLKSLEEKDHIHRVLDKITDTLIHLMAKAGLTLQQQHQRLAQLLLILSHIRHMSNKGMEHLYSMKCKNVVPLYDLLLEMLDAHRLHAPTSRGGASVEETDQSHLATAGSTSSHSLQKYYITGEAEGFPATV
Procedure: The ability of compounds to down-regulate Estrogen Receptor (ER) numbers was assessed in a cell based immuno-fluorescence assay using the MCF-7 human ductal carcinoma breast cell line. MCF-7 cells were revived directly from a cryovial (approx 5×10^6 cells) in Assay Medium (phenol red free Dulbecco's Modified Eagle's medium (DMEM); Sigma D5921) containing 2 mM L-Glutamine and 5% (v/v) Charcoal/Dextran treated foetal calf serum. Cells were syringed once using a sterile 18G×1.5 inch (1.2×40 mm) broad gauge needle and cell density was measured using a Coulter Counter (Beckman). […] Following cell seeding, plates were incubated overnight at 37° C., 5% CO2 (Liconic carousel incubator). Test data was generated using the LabCyte Echomodel 555 compound reformatter which is part of an automated workcell (Integrated Echo 2 workcell). Compound stock solutions (10 mM) of the test compounds were used to generate a 384 well compound dosing plate (Labcyte P-05525-CV1). […] 40 μL of DMSO added to wells in row P on the source plate allowed for DMSO normalisation across the dose range. To dose the control wells 40 μL of DMSO was added to row O1 and 40 μL of 100 μM fulvestrant in DMSO was added to row O3 on the compound source plate.
The Echo uses acoustic technology to perform direct microplate-to-microplate transfers of DMSO compound solutions to assay plates. The system can be programmed to transfer volumes as low as 2.5 nL in multiple increments between microplates and in so doing generates a serial dilution of compound in the assay plate which is then back-filled to normalise the DMSO concentration across the dilution range. […] The fixing method described above was carried out on the Integrated Echo 2 workcell. Immunostaining was performed using an automated AutoElisa workcell. The PBS/Proclin was aspirated from all wells and the cells permeabilised with 40 μL PBS containing 0.5% Tween™ 20 (v/v) for 1 hour at room temperature. The plates were washed three times in 250 μL of PBS/0.05% (v/v) Tween 20 with Proclin (PBST with a Biocide preservative) and then 20 μL of ERα (SP1) Rabbit monoclonal antibody (Thermofisher) 1:1000 in PBS/Tween™/3% (w/v) Bovine Serum Albumin was added. The plates were incubated overnight at 4° C. (Liconic carousel incubator) and then washed three times in 250 μL of PBS/0.05% (v/v) Tween™ 20 with Proclin (PBST). The plates were then incubated with 20 μL/well of a goat anti-rabbit IgG AlexaFluor 594 or goat anti-rabbit AlexaFluor 488 antibody (Molecular Probes) with Hoechst at 1:5000 in PBS/Tween™/3% (w/v) Bovine Serum Albumin for 1 hour at room temperature. The plates were then washed three times in 250 μL of PBS/0.05% (v/v) Tween™ 20 with Proclin (PBST with a Biocide preservative). 20 μL of PBS was added to each well and the plates covered with a black plate seal and stored at 4° C. before being read. […] The mean total intensity was normalized for cell number giving the total intensity per cell. The data was exported into a suitable software package (such as Origin) to perform curve fitting analysis.
The nature of data set [3]: Log D (shake flask, 1-octanol/aqueous buffer). It is filed as physicochemical.
The nature of data set [4]: Thermodynamic solubility (shake-flask). As to conditions: thermodynamic from solid, phosphate buffer pH 7.4, 24 hours. It is filed as physicochemical.
Procedure: The thermodynamic solubility of a research compound is measured under standard conditions. It is a shake-flask approach that uses 10 mM DMSO solutions which are supplied from the Compound Managements liquid store and is a high throughput method. The dried compounds are equilibrated in an aqueous phosphate buffer (pH 7.4) for 24 hours at 25° C., the portion with the dissolved compound is then separated from the remains. The solutions are analyzed and quantified using UPLC/MS/MS, QC-samples are incorporated in each assay-run to ensure the quality of the assay.
Data set [5] is described as follows: Human plasma protein binding (equilibrium dialysis). The format is in vitro ADME. On the technique in general: In equilibrium dialysis only unbound substance equilibrates across the membrane.
Setting [6] is: 1-octanol/aqueous buffer, pH 7.4, pH 7.4.
The mark [7] stands for this setting: aqueous phosphate buffer, 25 °C, pH 7.4, aqueous buffer.

Converted amounts (≈) assume the structure as drawn.

Chain of recombinant human Estrogen Receptor alpha ligand binding domain (ER alpha-LBD (GST)) (P03372 307-554): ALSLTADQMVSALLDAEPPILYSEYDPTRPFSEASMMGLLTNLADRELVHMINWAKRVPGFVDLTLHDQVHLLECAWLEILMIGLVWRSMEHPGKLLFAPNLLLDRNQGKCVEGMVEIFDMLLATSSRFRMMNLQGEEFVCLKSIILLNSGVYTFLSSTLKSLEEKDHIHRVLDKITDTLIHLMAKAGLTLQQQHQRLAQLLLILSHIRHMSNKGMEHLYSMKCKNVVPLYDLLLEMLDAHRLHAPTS

The IC50 is the point on the concentration scale where inhibition reaches its midpoint. Broadly, the logD is the decadic logarithm of the distribution of all forms, ionised or not, between an organic phase and buffer at a given pH. Low readings indicate lower lipophilicity, high ones higher lipophilicity. By solubility is commonly meant how much of the substance goes into solution per volume. A low value points to little dissolved substance. Consider `COc1ccc(OCCNCCCF)nc1[C@@H]1c2[nH]c3ccccc3c2C[C@@H](C)N1CC(F)(F)F` [Example 56, 3-fluoro-N-(2-((5-methoxy-6-((1S,3R)-3-methyl-2-(2,2,2-trifluoroethyl)-2,3,4,9-tetrahydro-1H-pyrido[3,4-b]indol-1-yl)pyridin-2-yl)oxy)ethyl)propan-1-amine], for which the IC50 in data set [1] was 39 nM; in data set [2] it was 14 nM. Moreover, the logD in data set [3] (setting [6]) amounted to 2.7. The compound further had a solubility at 24 h in data set [4] (setting [7]) of 445 µM (≈ 220 µg/mL). Also, the “Human plasma protein binding (% free)” value in data set [5] is recorded as 4.6 % free.

As for `C[C@@H]1Cc2c([nH]c3ccccc23)[C@@H](c2cccc(OCCNCCCF)c2C#N)N1CC(F)(F)F` [Example 69, 2-(2-((3-fluoropropyl)amino)ethoxy)-6-((1R,3R)-3-methyl-2-(2,2,2-trifluoroethyl)-2,3,4,9-tetrahydro-1H-pyrido[3,4-b]indol-1-yl)benzonitrile], the IC50 is 1.4 nM in data set [1] and 1.5 nM in data set [2]. In addition, the logD in data set [3] (setting [6]) worked out at 3.6. The compound also had a solubility at 24 h in data set [4] (setting [7]) of 150 µM (≈ 73.3 µg/mL). Also, in data set [5], the “Human plasma protein binding (% free)” value is 2.2 % free.

In the case of `COc1ccc(OCCNCCC(F)(F)F)cc1[C@@H]1c2[nH]c3ccccc3c2C[C@@H](C)N1CC(F)(F)F` [Example 72, 3,3,3-trifluoro-N-(2-(4-methoxy-3-((1R,3R)-3-methyl-2-(2,2,2-trifluoroethyl)-2,3,4,9-tetrahydro-1H-pyrido[3,4-b]indol-1-yl)phenoxy)ethyl)propan-1-amine], the IC50 was determined as 1.4 nM in data set [1] and 0.49 nM in data set [2]. The same compound yielded a logD in data set [3] (setting [6]) of 5.2. This compound displayed a solubility at 24 h in data set [4] (setting [7]) of less than 0.2 µM. In addition, the “Human plasma protein binding (% free)” value in data set [5] is less than 0.1 % free.

`C[C@@H]1Cc2c([nH]c3ccccc23)[C@@H](c2c(Cl)ccc(OCCNCCCF)c2F)N1CC(F)(F)F` [Example 78, N-(2-(4-chloro-2-fluoro-3-((1R,3R)-3-methyl-2-(2,2,2-trifluoroethyl)-2,3,4,9-tetrahydro-1H-pyrido[3,4-b]indol-1-yl)phenoxy)ethyl)-3-fluoropropan-1-amine]: the half-inhibitory concentration (IC50) in data set [1] amounted to 1.3 nM; in data set [2], 0.12 nM. This compound displayed a pH-dependent lipophilicity (logD) in data set [3] (setting [6]) of 4. Also, in data set [4] (setting [7]), the solubility at 24 h was 26 µM (≈ 13.4 µg/mL). Also, the “Human plasma protein binding (% free)” value in data set [5] is 0.21 % free.

In the case of `COc1ccc(OCCNCCCF)c(F)c1[C@@H]1c2[nH]c3ccccc3c2C[C@@H](C)N1CC(F)F` [Example 82, N-(2-(3-((1R,3R)-2-(2,2-difluoroethyl)-3-methyl-2,3,4,9-tetrahydro-1H-pyrido[3,4-b]indol-1-yl)-2-fluoro-4-methoxyphenoxy)ethyl)-3-fluoropropan-1-amine], the half-maximal inhibitory concentration (IC50) in data set [1] turned out to be 0.8 nM; in data set [2] it was 0.042 nM. This compound also had a log distribution coefficient (logD) in data set [3] (pH 7.4) of 2.9. Moreover, the solubility at 24 h in data set [4] (aqueous buffer, 25° C.) was 475 µM (≈ 234 µg/mL). For the same compound, the “Human plasma protein binding (% free)” value in data set [5] turned out to be 1.9 % free.

Consider `Cc1c(OCCNCCCF)ccc(F)c1[C@@H]1c2[nH]c3ccccc3c2C[C@@H](C)N1CCC#N` [Example 87, 3-((1R,3R)-1-(6-fluoro-3-(2-((3-fluoropropyl)amino)ethoxy)-2-methylphenyl)-3-methyl-1,3,4,9-tetrahydro-2H-pyrido[3,4-b]indol-2-yl)propanenitrile], for which the half-inhibitory concentration (IC50) stood at 0.54 nM in data set [1] and 0.065 nM in data set [2]. This compound came in with a log distribution coefficient (logD) in data set [3] (setting [6]) of 3.1. Moreover, in data set [4] (setting [7]), the solubility at 24 h is 71 µM (≈ 33.1 µg/mL). Besides, in data set [5], the “Human plasma protein binding (% free)” value is 1.6 % free.

`C[C@@H]1Cc2c([nH]c3ccccc23)[C@@H](c2cncc(OCCNCCCF)c2)N1CC(F)(F)F` [Example 101, 3-fluoro-N-(2-((5-((1R,3R)-3-methyl-2-(2,2,2-trifluoroethyl)-2,3,4,9-tetrahydro-1H-pyrido[3,4-b]indol-1-yl)pyridin-3-yl)oxy)ethyl)propan-1-amine]: the IC50 in data set [1] is 9.2 nM; in data set [2], 27 nM. For the same compound, the log distribution coefficient (logD) in data set [3] (setting [6]) came to 3.3. Besides, the solubility at 24 h in data set [4] (setting [7]) was 329 µM (≈ 153 µg/mL). For the same compound, the “Human plasma protein binding (% free)” value in data set [5] came to 8.4 % free.
